According to US20130190278A1, “Compounds for the Treatment/Prevention of Ocular Inflammatory Diseases” (Laboratoires Fournier SA, priority 2010, published 2013):

System: dry eye induced by scopolamine and extractor hood
Assay: Dry eye model (scopolamine + desiccation), tear production by Phenol Red test (PRTT)
Assay type: in vivo, mice
Details: instillations of 0.1% twice a day
Description: Dry eye is induced in mice by the combination of scopolamine, which blocks the muscarinic cholinergic receptors of lacrimal glands, and by placing the mice in an extractor hood that reduces humidity and increases air flow. The production and volume of aqueous tears, tear clearance, and the corneal barrier function are evaluated before treatment, and then twice a week after treatment. The results are compared between groups of untreated control mice, and groups of mice placed in the extractor hood, treated with the anticholinergic agent scopolamine, treated or not with tresperimus.
Male 129SV/CD-1 mice were used in this study and received three sub-cutaneous injections of 200 μl of scopolamine at 2.5 mg/mL in saline for 21 days. The mice were placed in an extractor hood (humidity <50%) during the whole experiment.
Tear production (PRTT) was measured with cotton threads impregnated with Phenol Red (Zone-quick; Menicon, Japan) applied to the ocular surface in the lateral canthus for 60 seconds. Wetting of the thread was measured in millimeters, using the scale on the cotton thread.

With `C[C@@H]1C[C@H]2[C@@H]3CCC4=CC(=O)C=C[C@]4(C)[C@@]3(F)[C@@H](O)C[C@]2(C)[C@@]1(O)C(=O)CO` [dexamethasone] the “Tear volume (Phenol Red test)” value was “no significant effect”.
